For one test, the target named is D(3) dopamine receptor (Homo sapiens, UniProt P35462). Briefly: PDSP Secondary Binding target: DRD3 - Compounds are tested at 10 uM concentration, plate are incubated at room temperature in the dark for 90 minutes. Reaction are stopped by vacuum filtration onto 0.3% polyethyleneimine soaked filter mats using Filtermate harvester. Scintillation cocktail is then melted onto microwave-dried filters on a hot plate and the radio activity is counted in Microbia counter.

In a further test the target is Histamine H1 receptor (Homo sapiens, UniProt P35367). The test is described as follows: PDSP Secondary Binding target: HRH1 - Compounds are tested at 10 uM concentration, plate are incubated at room temperature in the dark for 90 minutes. Reaction are stopped by vacuum filtration onto 0.3% polyethyleneimine soaked filter mats using Filtermate harvester. Scintillation cocktail is then melted onto microwave-dried filters on a hot plate and the radio activity is counted in Microbia counter.

Test [1] addresses 5-hydroxytryptamine receptor 2A (Homo sapiens, UniProt P28223). Briefly: PDSP Secondary Binding target: HTR2A - Compounds are tested at 10 uM concentration, plate are incubated at room temperature in the dark for 90 minutes. Reaction are stopped by vacuum filtration onto 0.3% polyethyleneimine soaked filter mats using Filtermate harvester. Scintillation cocktail is then melted onto microwave-dried filters on a hot plate and the radio activity is counted in Microbia counter.

The target of test [2] is Sigma non-opioid intracellular receptor 1 (Homo sapiens, UniProt Q99720). The test is described as follows: PDSP Secondary Binding target: SIGMAR1 - Compounds are tested at 10 uM concentration, plate are incubated at room temperature in the dark for 90 minutes. Reaction are stopped by vacuum filtration onto 0.3% polyethyleneimine soaked filter mats using Filtermate harvester. Scintillation cocktail is then melted onto microwave-dried filters on a hot plate and the radio activity is counted in Microbia counter.

Test [3] deals with T1, Alpha-1D adrenergic receptor (Homo sapiens, UniProt P25100).
T1 sequence (P25100 whole entry): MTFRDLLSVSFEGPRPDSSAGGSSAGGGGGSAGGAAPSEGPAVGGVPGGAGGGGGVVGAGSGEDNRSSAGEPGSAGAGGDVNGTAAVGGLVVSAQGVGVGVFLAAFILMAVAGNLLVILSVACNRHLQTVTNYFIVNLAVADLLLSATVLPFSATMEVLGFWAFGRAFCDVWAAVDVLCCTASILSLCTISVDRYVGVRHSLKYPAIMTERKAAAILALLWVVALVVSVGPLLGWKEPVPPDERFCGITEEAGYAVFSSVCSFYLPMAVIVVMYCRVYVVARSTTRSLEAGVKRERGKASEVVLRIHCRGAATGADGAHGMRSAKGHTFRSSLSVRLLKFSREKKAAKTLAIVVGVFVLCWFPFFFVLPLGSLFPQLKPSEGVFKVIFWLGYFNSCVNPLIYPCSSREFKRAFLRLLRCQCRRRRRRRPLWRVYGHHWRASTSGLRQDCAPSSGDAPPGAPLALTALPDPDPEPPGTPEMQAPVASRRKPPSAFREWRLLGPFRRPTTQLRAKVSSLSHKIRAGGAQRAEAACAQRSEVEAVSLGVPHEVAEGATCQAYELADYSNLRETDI
Briefly: PDSP Secondary Binding target: ADRA1D - Compounds are tested at 10 uM concentration, plate are incubated at room temperature in the dark for 90 minutes. Reaction are stopped by vacuum filtration onto 0.3% polyethyleneimine soaked filter mats using Filtermate harvester. Scintillation cocktail is then melted onto microwave-dried filters on a hot plate and the radio activity is counted in Microbia counter.

In a further test the target is Mu-type opioid receptor (Homo sapiens, UniProt P35372). Briefly: PDSP Secondary Binding target: OPRM1 - Compounds are tested at 10 uM concentration, plate are incubated at room temperature in the dark for 90 minutes. Reaction are stopped by vacuum filtration onto 0.3% polyethyleneimine soaked filter mats using Filtermate harvester. Scintillation cocktail is then melted onto microwave-dried filters on a hot plate and the radio activity is counted in Microbia counter.

For a further test, the target named is Translocator protein (Homo sapiens, UniProt P30536). The test is described as follows: PDSP Secondary Binding target: TSPO - Compounds are tested at 10 uM concentration, plate are incubated at room temperature in the dark for 90 minutes. Reaction are stopped by vacuum filtration onto 0.3% polyethyleneimine soaked filter mats using Filtermate harvester. Scintillation cocktail is then melted onto microwave-dried filters on a hot plate and the radio activity is counted in Microbia counter.

Test [4] has as its target 5-hydroxytryptamine receptor 5A (Homo sapiens, UniProt P47898). The test is described as follows: PDSP Secondary Binding target: HTR5A - Compounds are tested at 10 uM concentration, plate are incubated at room temperature in the dark for 90 minutes. Reaction are stopped by vacuum filtration onto 0.3% polyethyleneimine soaked filter mats using Filtermate harvester. Scintillation cocktail is then melted onto microwave-dried filters on a hot plate and the radio activity is counted in Microbia counter.

The target of test [5] is Kappa-type opioid receptor (Homo sapiens, UniProt P41145). Briefly: PDSP Secondary Binding target: OPRK1 - Compounds are tested at 10 uM concentration, plate are incubated at room temperature in the dark for 90 minutes. Reaction are stopped by vacuum filtration onto 0.3% polyethyleneimine soaked filter mats using Filtermate harvester. Scintillation cocktail is then melted onto microwave-dried filters on a hot plate and the radio activity is counted in Microbia counter.

Test [6] concerns the target 5-hydroxytryptamine receptor 7 (Homo sapiens, UniProt P34969). Briefly: PDSP Secondary Binding target: HTR7 - Compounds are tested at 10 uM concentration, plate are incubated at room temperature in the dark for 90 minutes. Reaction are stopped by vacuum filtration onto 0.3% polyethyleneimine soaked filter mats using Filtermate harvester. Scintillation cocktail is then melted onto microwave-dried filters on a hot plate and the radio activity is counted in Microbia counter.

Test [7] deals with T2, 5-hydroxytryptamine receptor 2C (Homo sapiens, UniProt P28335).
T2 sequence (P28335 whole entry): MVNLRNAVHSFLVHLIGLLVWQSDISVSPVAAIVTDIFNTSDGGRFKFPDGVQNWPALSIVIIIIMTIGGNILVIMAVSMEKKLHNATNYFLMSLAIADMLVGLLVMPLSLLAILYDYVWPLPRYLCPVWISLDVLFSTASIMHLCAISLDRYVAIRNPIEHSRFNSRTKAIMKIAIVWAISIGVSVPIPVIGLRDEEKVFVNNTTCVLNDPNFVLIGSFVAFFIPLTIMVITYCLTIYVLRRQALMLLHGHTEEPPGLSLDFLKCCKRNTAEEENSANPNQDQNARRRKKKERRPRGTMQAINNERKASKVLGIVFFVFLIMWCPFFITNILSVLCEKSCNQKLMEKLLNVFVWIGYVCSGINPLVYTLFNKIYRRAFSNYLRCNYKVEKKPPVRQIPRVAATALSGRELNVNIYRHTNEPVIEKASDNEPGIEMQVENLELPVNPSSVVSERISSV
The test is described as follows: PDSP Secondary Binding target: HTR2C - Compounds are tested at 10 uM concentration, plate are incubated at room temperature in the dark for 90 minutes. Reaction are stopped by vacuum filtration onto 0.3% polyethyleneimine soaked filter mats using Filtermate harvester. Scintillation cocktail is then melted onto microwave-dried filters on a hot plate and the radio activity is counted in Microbia counter.

In test [8] the target is T3, Alpha-2C adrenergic receptor (Homo sapiens, UniProt P18825).
T3 sequence (P18825 whole entry): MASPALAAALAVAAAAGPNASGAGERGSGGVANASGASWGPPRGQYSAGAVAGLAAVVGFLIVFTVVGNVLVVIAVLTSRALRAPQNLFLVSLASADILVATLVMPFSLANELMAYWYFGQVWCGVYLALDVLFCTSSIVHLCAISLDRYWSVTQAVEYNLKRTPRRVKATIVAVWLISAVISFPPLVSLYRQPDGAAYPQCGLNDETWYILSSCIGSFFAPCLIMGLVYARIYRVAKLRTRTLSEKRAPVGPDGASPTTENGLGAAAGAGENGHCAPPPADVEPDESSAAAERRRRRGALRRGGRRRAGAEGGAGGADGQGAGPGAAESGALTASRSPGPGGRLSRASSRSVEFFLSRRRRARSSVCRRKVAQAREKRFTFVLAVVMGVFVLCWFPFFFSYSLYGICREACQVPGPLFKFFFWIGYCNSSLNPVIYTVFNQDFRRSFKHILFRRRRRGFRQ
Briefly: PDSP Secondary Binding target: ADRA2C - Compounds are tested at 10 uM concentration, plate are incubated at room temperature in the dark for 90 minutes. Reaction are stopped by vacuum filtration onto 0.3% polyethyleneimine soaked filter mats using Filtermate harvester. Scintillation cocktail is then melted onto microwave-dried filters on a hot plate and the radio activity is counted in Microbia counter.

The target of test [9] is 5-hydroxytryptamine receptor 2B (Homo sapiens, UniProt P41595). Briefly: PDSP Secondary Binding target: HTR2B - Compounds are tested at 10 uM concentration, plate are incubated at room temperature in the dark for 90 minutes. Reaction are stopped by vacuum filtration onto 0.3% polyethyleneimine soaked filter mats using Filtermate harvester. Scintillation cocktail is then melted onto microwave-dried filters on a hot plate and the radio activity is counted in Microbia counter.

In test [10] the target is T4, Muscarinic acetylcholine receptor M5 (Homo sapiens, UniProt P08912).
T4 sequence (P08912 whole entry): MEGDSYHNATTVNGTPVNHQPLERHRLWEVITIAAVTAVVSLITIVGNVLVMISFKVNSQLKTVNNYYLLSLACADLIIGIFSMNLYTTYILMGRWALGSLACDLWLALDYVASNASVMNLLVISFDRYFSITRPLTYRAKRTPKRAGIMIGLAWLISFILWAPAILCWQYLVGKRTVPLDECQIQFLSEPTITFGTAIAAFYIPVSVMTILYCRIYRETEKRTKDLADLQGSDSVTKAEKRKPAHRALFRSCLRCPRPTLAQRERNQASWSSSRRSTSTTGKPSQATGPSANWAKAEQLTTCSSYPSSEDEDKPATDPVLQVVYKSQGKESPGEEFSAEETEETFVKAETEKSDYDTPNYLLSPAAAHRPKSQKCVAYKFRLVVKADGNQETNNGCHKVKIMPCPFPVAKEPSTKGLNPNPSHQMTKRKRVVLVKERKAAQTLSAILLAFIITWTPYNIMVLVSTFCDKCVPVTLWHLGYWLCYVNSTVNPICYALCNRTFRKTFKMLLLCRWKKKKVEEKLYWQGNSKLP
The test is described as follows: PDSP Secondary Binding target: CHRM5 - Compounds are tested at 10 uM concentration, plate are incubated at room temperature in the dark for 90 minutes. Reaction are stopped by vacuum filtration onto 0.3% polyethyleneimine soaked filter mats using Filtermate harvester. Scintillation cocktail is then melted onto microwave-dried filters on a hot plate and the radio activity is counted in Microbia counter.

Test [11] has as its target Sigma intracellular receptor 2 (Homo sapiens, UniProt Q5BJF2). The test is described as follows: PDSP Secondary Binding target: TMEM97 - Compounds are tested at 10 uM concentration, plate are incubated at room temperature in the dark for 90 minutes. Reaction are stopped by vacuum filtration onto 0.3% polyethyleneimine soaked filter mats using Filtermate harvester. Scintillation cocktail is then melted onto microwave-dried filters on a hot plate and the radio activity is counted in Microbia counter.

Test [12] concerns the target T5, Alpha-2B adrenergic receptor (Homo sapiens, UniProt P18089).
T5 sequence (P18089 whole entry): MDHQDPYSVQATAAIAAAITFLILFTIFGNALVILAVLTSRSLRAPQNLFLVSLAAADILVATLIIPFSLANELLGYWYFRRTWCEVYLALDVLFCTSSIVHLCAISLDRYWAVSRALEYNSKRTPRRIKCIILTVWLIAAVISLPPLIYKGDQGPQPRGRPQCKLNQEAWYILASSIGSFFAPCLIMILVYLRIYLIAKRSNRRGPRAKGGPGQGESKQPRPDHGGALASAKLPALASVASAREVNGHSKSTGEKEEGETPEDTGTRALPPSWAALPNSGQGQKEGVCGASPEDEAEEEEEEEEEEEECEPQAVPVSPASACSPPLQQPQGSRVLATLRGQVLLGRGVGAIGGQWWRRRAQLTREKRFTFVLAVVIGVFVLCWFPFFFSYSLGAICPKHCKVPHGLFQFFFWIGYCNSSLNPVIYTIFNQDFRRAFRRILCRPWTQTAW
Briefly: PDSP Secondary Binding target: ADRA2B - Compounds are tested at 10 uM concentration, plate are incubated at room temperature in the dark for 90 minutes. Reaction are stopped by vacuum filtration onto 0.3% polyethyleneimine soaked filter mats using Filtermate harvester. Scintillation cocktail is then melted onto microwave-dried filters on a hot plate and the radio activity is counted in Microbia counter.

Ki data for eight molecules are collected here from ChEMBL document CHEMBL5442175, “EUbOPEN Chemogenomics Library - PDSP Secondary Binding” (2024).

Usually Ki stands for a measure of affinity in units of concentration, obtained from inhibition or displacement. Higher therefore signals weaker binding.

Chain of 5-hydroxytryptamine receptor 2A (P28223 whole entry): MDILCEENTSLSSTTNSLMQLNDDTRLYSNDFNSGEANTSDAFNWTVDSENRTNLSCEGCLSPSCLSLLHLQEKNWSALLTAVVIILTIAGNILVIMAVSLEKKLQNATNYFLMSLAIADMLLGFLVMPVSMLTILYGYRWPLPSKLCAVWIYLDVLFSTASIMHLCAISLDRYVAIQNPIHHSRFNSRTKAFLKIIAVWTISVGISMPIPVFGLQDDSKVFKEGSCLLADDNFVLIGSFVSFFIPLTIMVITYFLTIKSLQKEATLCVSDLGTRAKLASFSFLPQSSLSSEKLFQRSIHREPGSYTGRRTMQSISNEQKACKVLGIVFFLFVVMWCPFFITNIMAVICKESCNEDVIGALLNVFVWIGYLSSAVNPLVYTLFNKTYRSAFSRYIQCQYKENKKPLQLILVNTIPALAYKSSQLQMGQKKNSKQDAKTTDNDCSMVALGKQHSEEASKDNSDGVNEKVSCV
Chain of Histamine H1 receptor (P35367 whole entry): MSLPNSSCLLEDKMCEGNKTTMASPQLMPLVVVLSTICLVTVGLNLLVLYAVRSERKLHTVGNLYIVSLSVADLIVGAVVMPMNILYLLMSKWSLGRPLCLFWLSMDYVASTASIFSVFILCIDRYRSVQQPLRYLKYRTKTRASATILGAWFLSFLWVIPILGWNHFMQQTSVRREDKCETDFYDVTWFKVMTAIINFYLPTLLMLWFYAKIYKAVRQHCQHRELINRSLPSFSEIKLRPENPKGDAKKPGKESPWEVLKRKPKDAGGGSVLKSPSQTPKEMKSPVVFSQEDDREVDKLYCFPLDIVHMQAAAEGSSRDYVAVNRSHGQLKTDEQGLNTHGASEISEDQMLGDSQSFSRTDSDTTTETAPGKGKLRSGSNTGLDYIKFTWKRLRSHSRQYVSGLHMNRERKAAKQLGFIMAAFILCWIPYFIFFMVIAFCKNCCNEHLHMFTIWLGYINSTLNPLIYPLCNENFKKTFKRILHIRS
Chain of Sigma non-opioid intracellular receptor 1 (Q99720 whole entry): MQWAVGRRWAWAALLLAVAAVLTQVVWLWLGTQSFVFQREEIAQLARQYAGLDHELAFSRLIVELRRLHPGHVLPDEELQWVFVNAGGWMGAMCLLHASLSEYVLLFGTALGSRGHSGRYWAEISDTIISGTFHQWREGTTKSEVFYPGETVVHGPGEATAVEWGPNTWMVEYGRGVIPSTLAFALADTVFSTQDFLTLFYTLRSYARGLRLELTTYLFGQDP
Chain of Mu-type opioid receptor (P35372 whole entry): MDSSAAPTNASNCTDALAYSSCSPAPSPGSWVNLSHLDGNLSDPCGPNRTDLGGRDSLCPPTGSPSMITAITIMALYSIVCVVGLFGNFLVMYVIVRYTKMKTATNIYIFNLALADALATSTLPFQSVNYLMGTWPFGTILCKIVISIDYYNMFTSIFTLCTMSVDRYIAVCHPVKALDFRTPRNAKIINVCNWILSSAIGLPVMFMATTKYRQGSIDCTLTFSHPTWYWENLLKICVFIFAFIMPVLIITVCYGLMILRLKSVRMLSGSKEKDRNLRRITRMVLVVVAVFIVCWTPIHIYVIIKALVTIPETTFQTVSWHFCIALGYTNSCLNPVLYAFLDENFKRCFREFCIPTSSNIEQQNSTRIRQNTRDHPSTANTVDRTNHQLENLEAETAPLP
Chain of D(3) dopamine receptor (P35462 whole entry): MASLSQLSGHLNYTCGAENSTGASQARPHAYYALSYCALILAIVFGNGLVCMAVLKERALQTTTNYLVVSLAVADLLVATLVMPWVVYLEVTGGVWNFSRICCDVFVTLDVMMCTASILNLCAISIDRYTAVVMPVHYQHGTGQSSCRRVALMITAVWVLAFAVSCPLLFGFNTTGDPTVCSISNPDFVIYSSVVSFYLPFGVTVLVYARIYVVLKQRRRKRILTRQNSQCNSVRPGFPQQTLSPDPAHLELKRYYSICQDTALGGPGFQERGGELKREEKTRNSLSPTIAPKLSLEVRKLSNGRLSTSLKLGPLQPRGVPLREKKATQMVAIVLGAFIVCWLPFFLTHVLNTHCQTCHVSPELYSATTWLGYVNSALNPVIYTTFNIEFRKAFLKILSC
Chain of Translocator protein (P30536 whole entry): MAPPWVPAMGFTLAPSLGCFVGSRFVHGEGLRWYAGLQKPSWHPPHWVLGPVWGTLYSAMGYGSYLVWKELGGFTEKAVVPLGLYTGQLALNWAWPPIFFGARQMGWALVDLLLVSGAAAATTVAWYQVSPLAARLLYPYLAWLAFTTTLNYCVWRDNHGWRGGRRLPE
Chain of 5-hydroxytryptamine receptor 7 (P34969 whole entry): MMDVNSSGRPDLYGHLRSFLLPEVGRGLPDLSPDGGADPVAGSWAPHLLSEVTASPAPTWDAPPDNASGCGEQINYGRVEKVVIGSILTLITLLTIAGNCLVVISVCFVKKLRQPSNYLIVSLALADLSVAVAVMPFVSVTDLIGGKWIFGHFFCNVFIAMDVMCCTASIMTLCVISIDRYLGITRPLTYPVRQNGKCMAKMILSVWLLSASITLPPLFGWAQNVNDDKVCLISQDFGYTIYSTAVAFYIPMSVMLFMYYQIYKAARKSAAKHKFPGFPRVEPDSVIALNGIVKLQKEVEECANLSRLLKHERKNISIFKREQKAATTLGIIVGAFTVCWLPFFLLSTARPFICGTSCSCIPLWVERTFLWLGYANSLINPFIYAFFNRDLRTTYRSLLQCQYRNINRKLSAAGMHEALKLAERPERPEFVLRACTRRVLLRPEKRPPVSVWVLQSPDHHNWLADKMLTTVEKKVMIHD
Chain of Kappa-type opioid receptor (P41145 whole entry): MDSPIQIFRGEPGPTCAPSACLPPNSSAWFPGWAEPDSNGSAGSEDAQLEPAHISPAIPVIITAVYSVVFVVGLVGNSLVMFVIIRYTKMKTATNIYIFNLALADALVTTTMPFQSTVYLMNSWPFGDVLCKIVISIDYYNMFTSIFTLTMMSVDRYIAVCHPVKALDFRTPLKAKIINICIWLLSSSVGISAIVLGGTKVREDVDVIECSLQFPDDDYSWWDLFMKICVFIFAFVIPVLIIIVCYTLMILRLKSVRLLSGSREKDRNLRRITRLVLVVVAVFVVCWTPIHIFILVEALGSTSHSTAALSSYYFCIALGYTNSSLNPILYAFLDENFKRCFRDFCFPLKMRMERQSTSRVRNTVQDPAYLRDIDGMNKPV
Chain of Sigma intracellular receptor 2 (Q5BJF2 whole entry): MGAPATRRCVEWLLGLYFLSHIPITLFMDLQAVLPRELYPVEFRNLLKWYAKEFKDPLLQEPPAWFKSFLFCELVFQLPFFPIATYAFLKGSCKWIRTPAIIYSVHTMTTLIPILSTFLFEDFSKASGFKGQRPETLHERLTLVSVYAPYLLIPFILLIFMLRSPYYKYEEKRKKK
Chain of 5-hydroxytryptamine receptor 5A (P47898 whole entry): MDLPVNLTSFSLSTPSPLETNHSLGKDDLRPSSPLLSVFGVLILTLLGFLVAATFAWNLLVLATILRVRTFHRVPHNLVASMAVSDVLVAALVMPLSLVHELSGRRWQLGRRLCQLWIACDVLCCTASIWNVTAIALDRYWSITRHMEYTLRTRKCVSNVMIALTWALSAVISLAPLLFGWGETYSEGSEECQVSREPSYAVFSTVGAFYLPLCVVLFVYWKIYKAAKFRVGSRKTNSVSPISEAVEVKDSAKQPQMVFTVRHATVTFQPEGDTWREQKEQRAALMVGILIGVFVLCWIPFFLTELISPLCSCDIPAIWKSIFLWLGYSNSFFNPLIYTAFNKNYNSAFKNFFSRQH
Chain of 5-hydroxytryptamine receptor 2B (P41595 whole entry): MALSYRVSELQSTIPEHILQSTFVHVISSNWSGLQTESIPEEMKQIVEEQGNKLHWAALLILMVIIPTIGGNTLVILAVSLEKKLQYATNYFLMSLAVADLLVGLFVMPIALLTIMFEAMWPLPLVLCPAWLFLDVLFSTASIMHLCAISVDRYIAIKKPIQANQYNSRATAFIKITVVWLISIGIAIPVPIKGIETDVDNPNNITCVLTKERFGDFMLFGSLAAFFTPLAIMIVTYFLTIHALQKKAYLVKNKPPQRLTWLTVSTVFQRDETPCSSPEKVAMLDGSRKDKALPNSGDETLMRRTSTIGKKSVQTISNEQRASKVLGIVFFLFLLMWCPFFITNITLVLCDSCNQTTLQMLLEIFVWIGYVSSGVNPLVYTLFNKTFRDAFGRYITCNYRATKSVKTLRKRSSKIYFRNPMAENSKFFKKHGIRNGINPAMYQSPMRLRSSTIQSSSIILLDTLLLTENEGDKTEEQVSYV

As for `CSc1ccc(C(=O)N[C@@H]2CCCC[C@@H]2NC(=O)CNC(=O)c2cc(C(F)(F)F)ccc2NC(=O)NC(C)C)cc1`, the inhibition constant (Ki) on D(3) dopamine receptor turned out to be 1190 nM; at Histamine H1 receptor it was 1610 nM.
On to `O=C(O)C1CN(Cc2ccc(OCc3ccc(Cl)c(Cl)c3)cc2)C1`, for which the Ki is 4610 nM in [1], more than 10000 nM on Histamine H1 receptor and 488 nM in test [2].
In [3], `CCCn1c(=O)c2[nH]c(-c3cnn(Cc4cccc(C(F)(F)F)c4)c3)nc2n(CC)c1=O` [GS 6201] had a Ki of more than 10000 nM.
On to `C/C(=N\NC(=O)[C@@H]1C(=O)NC[C@H]1c1ccccc1)c1cccc(Br)c1`, for which the Ki in [1] was 3880 nM; at Histamine H1 receptor, 1980 nM; at Mu-type opioid receptor it was more than 10000 nM.
Consider `CNc1nc(NCc2ccc(NS(C)(=O)=O)cc2Cl)cc(-c2ccccn2)n1`, for which the Ki at Translocator protein was determined as 1660 nM; in test [4] it was 2110 nM; in test [1], 2120 nM; in [5], 998 nM; on D(3) dopamine receptor it was 1020 nM; in test [6], 803 nM. In addition, the Ki in test [7] turned out to be 2220 nM; in test [8], 1720 nM; in test [9], 647 nM; in [2], 365 nM.
As to `Cc1nnn(-c2ccc(-c3ccc(C4(C(=O)O)CC4)cc3)cc2)c1NC(=O)O[C@H](C)c1ccccc1`, the Ki on Histamine H1 receptor was 5550 nM; in test [10], more than 10000 nM.
On to `Cc1ccccc1C(=O)Nc1ccc(C(=O)N2CCCC(O)c3cc(Cl)ccc32)c(C)c1` (configuration not stated) [TOLVAPTAN], for which the Ki at Histamine H1 receptor was determined as 6690 nM; in test [11], 1030 nM; in test [7], 4860 nM; on Mu-type opioid receptor, 410 nM.
In the case of `NC[C@H](O)c1ccc(O)c(O)c1`, the Ki in test [12] was 235 nM; in test [8], 386 nM.
